Consider 25 molecules from patent US9707233B2, “Heterocyclylamines as PI3K inhibitors” (Incyte Corporation, priority 2011, dated 2017).

The structures appear in SMILES notation.

A word on the IC50: it is the midpoint of a concentration-inhibition curve.

This test addresses PI3Kδ (p110δ/p85α) (Homo sapiens (Human), UniProt O00329). Put plainly: PI3Kδ scintillation proximity assay (Example A3). Type of test: biochemical. The following applies: 20 μM ATP, 20 μM PIP2, 4 nM PI3Kδ; read-out: PI3Kδ SPA IC50. The method, boiled down:
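IC50 derived by fitting percent control activity against log inhibitor concentration. Radiolabelled product was measured by scintillation counting on WGA SPA beads after overnight shaking. The kinase reaction used 4 nM p110δ/p85α, 20 μM ATP (with [γ-33P]ATP) and 20 μM PIP2 at pH 6.7 and room temperature, with 0.5% DMSO final.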
For orientation: In a scintillation proximity assay essentially only radioactivity close to the scintillant gives light.

Chain of PI3Kδ (p110δ/p85α) (O00329 whole entry): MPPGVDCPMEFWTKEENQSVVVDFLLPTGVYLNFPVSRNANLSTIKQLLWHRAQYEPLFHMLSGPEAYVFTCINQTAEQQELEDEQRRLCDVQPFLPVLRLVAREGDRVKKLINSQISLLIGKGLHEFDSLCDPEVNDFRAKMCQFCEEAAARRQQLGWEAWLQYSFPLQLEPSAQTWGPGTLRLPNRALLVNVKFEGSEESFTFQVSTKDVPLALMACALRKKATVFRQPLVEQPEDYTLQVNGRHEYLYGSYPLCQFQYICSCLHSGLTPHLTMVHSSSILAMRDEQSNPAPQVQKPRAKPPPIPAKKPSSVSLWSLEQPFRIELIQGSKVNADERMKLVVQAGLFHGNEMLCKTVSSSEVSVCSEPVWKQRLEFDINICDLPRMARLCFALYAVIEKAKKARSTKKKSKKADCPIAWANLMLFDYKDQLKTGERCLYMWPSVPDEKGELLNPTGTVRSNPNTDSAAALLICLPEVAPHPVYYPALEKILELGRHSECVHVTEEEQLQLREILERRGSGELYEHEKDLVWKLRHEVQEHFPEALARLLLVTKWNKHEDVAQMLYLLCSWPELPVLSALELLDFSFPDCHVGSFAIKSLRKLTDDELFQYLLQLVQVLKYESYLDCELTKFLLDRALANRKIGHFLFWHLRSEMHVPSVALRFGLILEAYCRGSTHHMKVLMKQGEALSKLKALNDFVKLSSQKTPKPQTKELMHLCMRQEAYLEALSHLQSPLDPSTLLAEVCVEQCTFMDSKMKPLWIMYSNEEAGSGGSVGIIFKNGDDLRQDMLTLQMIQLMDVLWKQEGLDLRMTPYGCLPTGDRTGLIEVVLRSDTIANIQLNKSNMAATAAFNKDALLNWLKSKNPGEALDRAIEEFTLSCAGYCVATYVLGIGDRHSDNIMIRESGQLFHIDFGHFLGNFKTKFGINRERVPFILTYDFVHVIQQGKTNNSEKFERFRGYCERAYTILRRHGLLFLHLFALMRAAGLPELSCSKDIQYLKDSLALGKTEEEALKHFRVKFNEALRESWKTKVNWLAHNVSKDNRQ
Chain of PI3Kδ (p110δ/p85α) (P27986 whole entry partner): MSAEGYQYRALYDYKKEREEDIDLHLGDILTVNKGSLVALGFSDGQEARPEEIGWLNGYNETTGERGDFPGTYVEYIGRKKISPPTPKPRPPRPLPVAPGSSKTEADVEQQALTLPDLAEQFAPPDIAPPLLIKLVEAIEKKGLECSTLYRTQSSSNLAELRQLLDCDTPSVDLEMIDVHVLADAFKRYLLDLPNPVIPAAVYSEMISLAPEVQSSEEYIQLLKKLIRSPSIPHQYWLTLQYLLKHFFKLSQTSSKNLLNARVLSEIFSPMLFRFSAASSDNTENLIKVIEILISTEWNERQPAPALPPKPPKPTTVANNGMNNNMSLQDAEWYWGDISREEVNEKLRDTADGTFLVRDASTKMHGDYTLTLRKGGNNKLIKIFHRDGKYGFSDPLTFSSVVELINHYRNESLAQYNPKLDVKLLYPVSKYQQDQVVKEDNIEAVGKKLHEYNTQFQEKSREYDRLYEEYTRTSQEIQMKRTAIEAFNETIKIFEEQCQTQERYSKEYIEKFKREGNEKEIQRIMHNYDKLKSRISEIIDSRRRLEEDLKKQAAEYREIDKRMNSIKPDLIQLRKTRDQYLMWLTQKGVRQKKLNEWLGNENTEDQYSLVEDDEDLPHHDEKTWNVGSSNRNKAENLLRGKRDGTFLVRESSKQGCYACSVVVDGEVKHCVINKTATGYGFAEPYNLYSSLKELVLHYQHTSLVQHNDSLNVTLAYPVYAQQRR

Take `CCOc1c(C(C)n2nc(C)c3c(N)ncnc32)cc(Cl)c(C#N)c1C1CN(CC(C)C)C1` (single isomer, unassigned) [Example 216, 4-[1-(4-Amino-3-methyl-1H-pyrazolo[3,4-d]pyrimidin-1-yl)ethyl]-6-chloro-3-ethoxy-2-(1-isobutylazetidin-3-yl)benzonitrile]: the IC50 was ≤ 0.01 µM. The value for `COc1c(C(C)n2nc(-c3cnn(C)c3)c3c(N)ncnc32)cc(Cl)c(C)c1C1CN(CC#N)C1` (racemic) [Example 125, [3-(3-{1-[4-Amino-3-(1-methyl-1H-pyrazol-4-yl)-1H-pyrazolo[3,4-d]pyrimidin-1-yl]ethyl}-5-chloro-2-methoxy-6-methylphenyl)azetidin-1-yl]acetonitrile bis(trifluoroacetate)] was ≤ 0.01 µM. The value for `CCOc1c(C(C)n2nc(C)c3c(N)ncnc32)cc(Cl)c(C#N)c1C1CN(C(=O)NC)C1` (stereo not shown) [Example 257, 3-{3-[1-(4-Amino-3-methyl-1H-pyrazolo[3,4-d]pyrimidin-1-yl)ethyl]-5-chloro-6-cyano-2-ethoxyphenyl}-N-methylazetidine-1-carboxamide] was ≤ 0.01 µM; that for `COc1c(C(C)n2nc(C)c3c(N)ncnc32)cc(Cl)c(C#N)c1C1CN(S(=O)(=O)C2CC2)C1` (single isomer, unassigned) [Example 288, 4-[1-(4-Amino-3-methyl-1H-pyrazolo[3,4-d]pyrimidin-1-yl)ethyl]-6-chloro-2-[1-(cyclopropylsulfonyl)azetidin-3-yl]-3-methoxybenzonitrile] was ≤ 0.01 µM; that for `CCOc1c(C(C)n2nc(C)c3c(N)ncnc32)cc(Cl)c(C)c1C1CN(CCO)C1` (racemic) [Example 95, 2-(3-{3-[1-(4-Amino-3-methyl-1H-pyrazolo[3,4-d]pyrimidin-1-yl)ethyl]-5-chloro-2-ethoxy-6-methylphenyl}azetidin-1-yl)ethanol bis(trifluoroacetate)] was ≤ 0.01 µM. The value for `CCC(=O)N1CC(c2c(C#N)c(Cl)cc(C(C)n3nc(C)c4c(N)ncnc43)c2OC)C1` (single isomer, unassigned) [Example 282, 4-[1-(4-Amino-3-methyl-1H-pyrazolo[3,4-d]pyrimidin-1-yl)ethyl]-6-chloro-3-methoxy-2-(1-propionylazetidin-3-yl)benzonitrile] was ≤ 0.01 µM; that for `COc1c(C(C)n2nc(C)c3c(N)ncnc32)cc(Cl)c(F)c1C1CN(C[C@H](C)O)C1` (single isomer, unassigned) [68 (1st peak)] was ≤ 0.01 µM; that for `COc1c(C(C)n2nc(C)c3c(N)ncnc32)cc(Cl)c(C)c1C1CN(CC2CC2)C1` (racemic) [Example 4, 1-(1-{5-Chloro-3-[1-(cyclopropylmethyl)azetidin-3-yl]-2-methoxy-4-methylphenyl}ethyl)-3-methyl-1H-pyrazolo[3,4-d]pyrimidin-4-amine bis(trifluoroacetate)] was ≤ 0.01 µM.

Take `CCOc1c(C(C)n2nc(CN(C)C)c3c(N)ncnc32)cc(Cl)c(C)c1-c1ccc(C(=O)N(C)C)nc1` (racemic) [Example 85, 5-[3-(1-{4-Amino-3-[(dimethylamino)methyl]-1H-pyrazolo[3,4-d]pyrimidin-1-yl}ethyl)-5-chloro-2-ethoxy-6-methylphenyl]-N,N-dimethylpyridine-2-carboxamide tris(trifluoroacetate)]: the concentration for half-maximal inhibition (IC50) is 0.05 to 0.2 µM. The value for `CCOc1c(C(C)n2nc(C)c3c(N)ncnc32)cc(Cl)c(C#N)c1C1CN(C(N)=O)C1` (single isomer, unassigned) [Example 256, 3-{3-[1-(4-Amino-3-methyl-1H-pyrazolo[3,4-d]pyrimidin-1-yl)ethyl]-5-chloro-6-cyano-2-ethoxyphenyl}azetidine-1-carboxamide] was ≤ 0.01 µM. As to `CCNC(=O)N1CC(c2c(C#N)c(Cl)cc(C(C)n3nc(C)c4c(N)ncnc43)c2OC)C1` (single isomer, unassigned) [Example 295, 3-{3-[1-(4-Amino-3-methyl-1H-pyrazolo[3,4-d]pyrimidin-1-yl)ethyl]-5-chloro-6-cyano-2-methoxyphenyl}-N-ethylazetidine-1-carboxamide], the IC50 was ≤ 0.01 µM. On to `COc1c(C(C)n2nc(C)c3c(N)ncnc32)cc(Cl)c(Cl)c1C1CN(CCO)C1` (single isomer, unassigned) [Example 300, 2-(3-{3-[1-(4-Amino-3-methyl-1H-pyrazolo[3,4-d]pyrimidin-1-yl)ethyl]-5,6-dichloro-2-methoxyphenyl}azetidin-1-yl)ethano], for which the IC50 is ≤ 0.01 µM. Consider `COc1c(C(C)n2nc(C)c3c(N)ncnc32)cc(Cl)c(C)c1C1CN(C(=O)C2(O)CC2)C1` (single isomer, unassigned) [Example 122, 1-[(3-{3-[1-(4-Amino-3-methyl-1H-pyrazolo[3,4-d]pyrimidin-1-yl)ethyl]-5-chloro-2-methoxy-6-methylphenyl}azetidin-1-yl)carbonyl]cyclopropanol], for which the IC50 was ≤ 0.01 µM. The value for `COc1c(C(C)n2nc(C)c3c(N)ncnc32)cc(Cl)c(C)c1-c1cncc(S(C)(=O)=O)c1` (single isomer, unassigned) [Example 172, 1-(1-(5-chloro-2-methoxy-4-methyl-3-(5-(methylsulfonyl)pyridin-3-yl)phenyl)ethyl)-3-methyl-1H-pyrazolo[3,4-d]pyrimidin-4-amine] was ≤ 0.01 µM; that for `COc1c(C(C)n2ccc(=O)c3c(N)ncnc32)cc(Cl)c(C)c1-c1cccc(C(=O)N(C)C)c1` (racemic) [Example 30, 3′-[1-(4-Amino-5-oxopyrido[2,3-d]pyrimidin-8(5H)-yl)ethyl]-5′-chloro-2′-methoxy-N,N,6′-trimethylbiphenyl-3-carboxamide bis(trifluoroacetate)] was ≤ 0.01 µM. The value for `CCOc1c(C(C)n2nc(C)c3c(N)ncnc32)cc(Cl)c(C#N)c1C1CN(C2CCC2)C1` (single isomer, unassigned) [Example 218, 4-[1-(4-Amino-3-methyl-1H-pyrazolo[3,4-d]pyrimidin-1-yl)ethyl]-6-chloro-2-(1-cyclobutylazetidin-3-yl)-3-ethoxybenzonitrile] was ≤ 0.01 µM. In the case of `CCOc1c(C(C)n2nc(C)c3c(N)ncnc32)cc(Cl)c(C#N)c1C1CN(S(=O)(=O)C(C)C)C1` (single isomer, unassigned) [Example 250, 4-[1-(4-Amino-3-methyl-1H-pyrazolo[3,4-d]pyrimidin-1-yl)ethyl]-6-chloro-3-ethoxy-2-[1-(isopropylsulfonyl)azetidin-3-yl]benzonitrile] it was ≤ 0.01 µM; in that of `COc1c(C(C)n2nc(C)c3c(N)ncnc32)cc(Cl)c(C)c1-c1cnn(CCO)c1` (single isomer, unassigned) [20 (1st peak), 2-(4-(3-(1-(4-Amino-3-methyl-1H-pyrazolo[3,4-d]pyrimidin-1-yl)ethyl)-5-chloro-2-methoxy-6-methylphenyl)-1H-pyrazol-1-yl)ethanol], ≤ 0.01 µM; in that of `CCOc1c(C(C)n2nc(C)c3c(N)ncnc32)cc(Cl)c(C#N)c1C1CN(CC)C1` (stereo not shown) [Example 214, 4-[1-(4-Amino-3-methyl-1H-pyrazolo[3,4-d]pyrimidin-1-yl)ethyl]-6-chloro-3-ethoxy-2-(1-ethylazetidin-3-yl)benzonitrile], ≤ 0.01 µM. Regarding `COc1c(C(C)n2ccc(=O)c3c(N)ncnc32)cc(Cl)c(C)c1-c1ccc(C(=O)N(C)C)nc1` (single isomer, unassigned) [25 (1st peak), 5-{3-[1-(4-Amino-5-oxopyrido[2,3-d]pyrimidin-8(5H)-yl)ethyl]-5-chloro-2-methoxy-6-methylphenyl}-N,N-dimethylpyridine-2-carboxamide], the concentration for half-maximal inhibition (IC50) was in the range of 0.2 to 0.5 µM. As for `CNC(=O)c1ccc(-c2c(C)c(Cl)cc(C(C)n3nc(C)c4c(N)ncnc43)c2OC)cn1` (single isomer, unassigned) [Example 173, 5-(3-(1-(4-amino-3-methyl-1H-pyrazolo[3,4-d]pyrimidin-1-yl)ethyl)-5-chloro-2-methoxy-6-methylphenyl)-N-methylpicolinamide], the IC50 is ≤ 0.01 µM.

As for `CCOc1c(C(C)n2nc(C)c3c(N)ncnc32)cc(Cl)c(C#N)c1N1CC(COC)C1` (racemic) [Example 341, 4-[1-(4-amino-3-methyl-1H-pyrazolo[3,4-d]pyrimidin-1-yl)ethyl]-6-chloro-3-ethoxy-2-[3-(methoxymethyl)azetidin-1-yl]benzonitrile], the IC50 is ≤ 0.01 µM. The value for `CCOc1c(C(C)n2nc(C#N)c3c(N)ncnc32)cc(Cl)c(C)c1-c1ccc(C(=O)N(C)C)nc1` (racemic) [Example 54, 5-{3-[1-(4-amino-3-cyano-1H-pyrazolo[3,4-d]pyrimidin-1-yl)ethyl]-5-chloro-2-ethoxy-6-methylphenyl}-N,N-dimethylpyridine-2-carboxamide] was 0.01 to 0.05 µM; that for `COc1c(C(C)n2nc(C)c3c(N)ncnc32)cc(Cl)c(C)c1C1CNC(=O)CO1` (single isomer, unassigned) [324 (2nd peak), 6-{3-[1-(4-Amino-3-methyl-1H-pyrazolo[3,4-d]pyrimidin-1-yl)ethyl]-5-chloro-2-methoxy-6-methylphenyl}morpholin-3-one] was ≤ 0.01 µM. In the case of `CCOc1c(C(C)n2nc(C)c3c(N)ncnc32)cc(Cl)c(C#N)c1C1CN(C(=O)C(C)C)C1` (single isomer, unassigned) [Example 244, 4-[1-(4-Amino-3-methyl-1H-pyrazolo[3,4-d]pyrimidin-1-yl)ethyl]-6-chloro-3-ethoxy-2-(1-isobutyrylazetidin-3-yl)benzonitrile] it was ≤ 0.01 µM.
